Test results reported in patent US12054483B2, “Small molecule inhibitors of DYRK/CLK and uses thereof” (Arizona Board of Regents on Behalf of the University of …, priority 2018, dated 2024).
pKd: −log10 of the molar value.

target: DYRK1A (Homo sapiens, UniProt Q13627); assay: Affinity testing of compounds with DYRK1A (KD); type: binding; details: DYRK1A affinity key classes

Row | Compound | pKd
1 | Cc1nc2ccc(-c3cn[nH]c3)c(F)c2n1-c1ccc2c(c1)OCO2 [Compound 20, 1-(benzo[d][1,3]dioxol-5-yl)-7-fluoro-2-methyl-6-(1H-pyrazol-4-yl)-1H-benzo[d]imidazole] | 7.00 to 9.30
2 | Fc1c(-c2ccncc2)ccc2nc(C3CC3)n(-c3ccc4c(c3)OCO4)c12 [Compound 21, 1-(benzo[d][1,3]dioxol-5-yl)-2-cyclopropyl-7-fluoro-6-(pyridin-4-yl)-1H-benzo[d]imidazole] | 5.00 to 6.30
3 | Nc1cc(-c2ccc3nccn3n2)ccn1 [Compound 24, 4-(imidazo[1,2-b]pyridazin-6-yl)pyridin-2-amine] | 7.00 to 9.30
4 | Cc1cn2nc(-c3ccnc(N)c3)ccc2n1 [Compound 25, 4-(2-methylimidazo[1,2-b]pyridazin-6-yl)pyridin-2-amine] | 7.00 to 9.30
5 | c1cn2nc(-c3cn[nH]c3)ccc2n1 [Compound 26, 6-(1H-pyrazol-4-yl)imidazo[1,2-b]pyridazine] | 6.30 to 7.00
6 | c1n[nH]cc1-c1ccc2ncc(-c3ccc4c(c3)OCO4)n2n1 [Compound 27, 3-(benzo[d][1,3]dioxol-5-yl)-6-(1H-pyrazol-4-yl)imidazo[1,2-b]pyridazine] | 7.00 to 9.30
7 | Cc1nc2ccc(-c3ccncc3)nc2n1-c1ccc(CN2CCOCC2)cc1 [Compound 28, 4-(4-(2-methyl-5-(pyridin-4-yl)-3H-imidazo[4,5-b]pyridin-3-yl)benzyl)morpholine] | 7.00 to 9.30
8 | Cc1nc2ccc(-c3ccncc3)nc2n1-c1ccc2c(c1)OCO2 [Compound 29, 3-(benzo[d][1,3]dioxol-5-yl)-2-methyl-5-(pyridin-4-yl)-3H-imidazo[4,5-b]pyridine] | 7.00 to 9.30
9 | Cc1nc2ccc(-c3cn[nH]c3)nc2n1-c1ccc2c(c1)OCO2 [Compound 30, 3-(benzo[d][1,3]dioxol-5-yl)-2-methyl-5-(1H-pyrazol-4-yl)-3H-imidazo[4,5-b]pyridine] | 7.00 to 9.30
10 | Cc1nc2ccc(-c3cnn(C)c3)nc2n1-c1ccc2c(c1)OCO2 [Compound 31, 3-(benzo[d][1,3]dioxol-5-yl)-2-methyl-5-(1-methyl-1H-pyrazol-4-yl)-3H-imidazo[4,5-b]pyridine] | 6.30 to 7.00
11 | Cc1nc2ccc(-c3cn[nH]c3)nc2n1-c1ccc2[nH]cnc2c1 [Compound 33, 3-(1H-benzo[d]imidazol-5-yl)-2-methyl-5-(1H-pyrazol-4-yl)-3H-imidazo[4,5-b]pyridine] | 7.00 to 9.30
12 | Cc1nc2ccc(-c3ccncc3)nc2n1-c1ccc2[nH]c(C(F)(F)F)nc2c1 [Compound 34, 2-methyl-5-(pyridin-4-yl)-3-(2-(trifluoromethyl)-1H-benzo[d]imidazol-5-yl)-3H-imidazo[4,5-b]pyridine] | 7.00 to 9.30
13 | Cc1nc2cc(-n3c(C)nc4ccc(-c5ccncc5)nc43)ccc2o1 [Compound 35, 2-methyl-5-(2-methyl-5-(pyridin-4-yl)-3H-imidazo[4,5-b]pyridin-3-yl)benzo[d]oxazole] | 6.30 to 7.00
14 | Cc1nc2cc(-n3c(C)nc4ccc(-c5cn[nH]c5)nc43)ccc2o1 [Compound 36, 2-methyl-5-(2-methyl-5-(1H-pyrazol-4-yl)-3H-imidazo[4,5-b]pyridin-3-yl)benzo oxazole] | 6.30 to 7.00
15 | Cc1nc2ccc(-c3ccncc3)nc2n1-c1ccc2c(c1)OCC(=O)N2 [Compound 37, 7-(2-methyl-5-(pyridin-4-yl)-3H-imidazo[4,5-b]pyridin-3-yl)-2H-benzo[b][1,4]oxazin-3(4H)-one] | 7.00 to 9.30
16 | CC(=O)N1C[C@@H]2[C@H](C1)[C@H]2n1c(C)nc2ccc(-c3ccncc3)nc21 [Compound 38, 1-((1R,5S,6s)-6-(2-methyl-5-(pyridin-4-yl)-3H-imidazo[4,5-b]pyridin-3-yl)-3-azabicyclo[3.1.0]hexan-3-yl)ethan-1-one] | 7.00 to 9.30
17 | CC(=O)N1CC[C@H](n2c(C)nc3ccc(-c4ccncc4)nc32)C1 [Compound 39, (S)-1-(3-(2-methyl-5-(pyridin-4-yl)-3H-imidazo[4,5-b]pyridin-3-yl)pyrrolidin-1-yl)ethan-1-one] | 6.30 to 7.00
18 | Cc1nc2ccc(-c3ccncc3)nc2n1-c1ccc(=O)n(C)c1 [Compound 41, 1-methyl-5-(2-methyl-5-(pyridin-4-yl)-3H-imidazo[4,5-b]pyridin-3-yl)pyridin-2(1H)-one] | 6.30 to 7.00
19 | Cc1nc2ccc(-c3ccncc3)nc2n1-c1ccc(C#N)cn1 [Compound 42, 6-(2-methyl-5-(pyridin-4-yl)-3H-imidazo[4,5-b]pyridin-3-yl)nicotinonitrile] | 7.00 to 9.30
20 | Cc1nc2ccc(-c3ccnc(N)c3)nc2n1-c1ccc(CN2CCOCC2)cc1 [Compound 44, 4-(2-methyl-3-(4-(morpholinomethyl)phenyl)-3H-imidazo[4,5-b]pyridin-5-yl)pyridin-2-amine] | 7.00 to 9.30
21 | Cc1nc2ccc(-c3cc[nH]c(=O)c3)nc2n1-c1ccc(CN2CCOCC2)cc1 [Compound 45, 4-(2-methyl-3-(4-(morpholinomethyl)phenyl)-3H-imidazo[4,5-b]pyridin-5-yl)pyridin-2(1H)-one] | 5.00 to 6.30
22 | Cc1nc2ccc(-c3ccnc(N)c3)nc2n1-c1ccc2c(c1)OCC(=O)N2 [Compound 46, 7-(5-(2-aminopyridin-4-yl)-2-methyl-3H-imidazo[4,5-b]pyridin-3-yl)-2H-benzo[b][1,4]oxazin-3(4H)-one] | 7.00 to 9.30

The next lines start with the values.

Row | pKd | Compound
23 | 7.00 to 9.30 | Fc1c(-c2ccncc2)ccc2ncn(-c3ccc4c(c3)OCO4)c12 [Compound 1, 1-(benzo[d][1,3]dioxol-5-yl)-7-fluoro-6-(pyridin-4-yl)-1H-benzo[d]imidazole]
24 | 7.00 to 9.30 | Fc1cc2ncn(-c3ccc4c(c3)OCO4)c2cc1-c1ccncc1 [Compound 2, 1-(benzo[d][1,3]dioxol-5-yl)-5-fluoro-6-(pyridin-4-yl)-1H-benzo[d]imidazole]
25 | 7.00 to 9.30 | Fc1cc(-c2ccncc2)cc2c1ncn2-c1ccc2c(c1)OCO2 [Compound 3, 1-(benzo[d][1,3]dioxol-5-yl)-4-fluoro-6-(pyridin-4-yl)-1H-benzo[d]imidazole]
26 | 7.00 to 9.30 | c1cc(-c2ccc3ncn(-c4ccc5c(c4)OCO5)c3n2)ccn1 [Compound 4, 3-(benzo[d][1,3]dioxol-5-yl)-5-(pyridin-4-yl)-3H-imidazo[4,5-b]pyridine]
27 | 7.00 to 9.30 | COC(=O)c1ccc(-n2cnc3ccc(-c4ccncc4)c(F)c32)cc1 [Compound 5, methyl 4-(7-fluoro-6-(pyridin-4-yl)-1H-benzo[d]imidazol-1-yl)benzoate]
28 | 6.30 to 7.00 | O=C(O)c1ccc(-n2cnc3ccc(-c4ccncc4)c(F)c32)cc1 [Compound 6, 4-(7-fluoro-6-(pyridin-4-yl)-1H-benzo[d]imidazol-1-yl)benzoic acid]
29 | 6.30 to 7.00 | COC(=O)c1ccc(-n2cnc3cc(F)c(-c4ccncc4)cc32)cc1 [Compound 7, methyl 4-(5-fluoro-6-(pyridin-4-yl)-1H-benzo[d]imidazol-1-yl)benzoate]
30 | 6.30 to 7.00 | O=C(O)c1ccc(-n2cnc3cc(F)c(-c4ccncc4)cc32)cc1 [Compound 8, 4-(5-fluoro-6-(pyridin-4-yl)-1H-benzo[d]imidazol-1-yl)benzoic acid]
31 | 7.00 to 9.30 | COC(=O)c1ccc(-n2cnc3ccc(-c4ccncc4)nc32)cc1 [Compound 9, methyl 4-(5-(pyridin-4-yl)-3H-imidazo[4,5-b]pyridin-3-yl)benzoate]
32 | 7.00 to 9.30 | O=C(O)c1ccc(-n2cnc3ccc(-c4ccncc4)nc32)cc1 [Compound 10, 4-(5-(pyridin-4-yl)-3H-imidazo[4,5-b]pyridin-3-yl)benzoic acid]
33 | 6.30 to 7.00 | N#Cc1ccnc(-n2cnc3ccc(-c4ccncc4)c(F)c32)c1 [Compound 11, 2-(7-fluoro-6-(pyridin-4-yl)-1H-benzo[d]imidazol-1-yl)isonicotinonitrile]
34 | 6.30 to 7.00 | NC(=O)c1ccnc(-n2cnc3ccc(-c4ccncc4)c(F)c32)c1 [Compound 12, 2-(7-fluoro-6-(pyridin-4-yl)-1H-benzo[d]imidazol-1-yl)isonicotinamide]
35 | 5.00 to 6.30 | O=C(O)c1ccnc(-n2cnc3ccc(-c4ccncc4)c(F)c32)c1 [Compound 13, 2-(7-fluoro-6-(pyridin-4-yl)-1H-benzo[d]imidazol-1-yl)isonicotinic acid]
36 | 7.00 to 9.30 | N#Cc1ccc(-n2cnc3ccc(-c4ccncc4)c(F)c32)nc1 [Compound 14, 6-(7-fluoro-6-(pyridin-4-yl)-1H-benzo[d]imidazol-1-yl)nicotinonitrile]
37 | 7.00 to 9.30 | NC(=O)c1ccc(-n2cnc3ccc(-c4ccncc4)c(F)c32)nc1 [Compound 15, 6-(7-fluoro-6-(pyridin-4-yl)-1H-benzo[d]imidazol-1-yl)nicotinamide]
38 | 7.00 to 9.30 | COC(=O)c1ccc(-n2cnc3c(F)cc(-c4ccncc4)cc32)cc1 [Compound 16, methyl 4-(4-fluoro-6-(pyridin-4-yl)-1H-benzo[d]imidazol-1-yl)benzoate]
39 | 6.30 to 7.00 | O=C(O)c1ccc(-n2cnc3c(F)cc(-c4ccncc4)cc32)cc1 [Compound 17, 4-(4-fluoro-6-(pyridin-4-yl)-1H-benzo[d]imidazol-1-yl)benzoic acid]
40 | 7.00 to 9.30 | Cc1nc2ccc(-c3ccncc3)c(F)c2n1-c1ccc2c(c1)OCO2 [Compound 19, 1-(benzo[d][1,3]dioxol-5-yl)-7-fluoro-2-methyl-6-(pyridin-4-yl)-1H-benzo[d]imidazole]
41 | 7.00 to 9.30 | c1cc(-c2ccc3ncc(-c4ccc5c(c4)OCO5)n3n2)ccn1 [Compound 23, 3-(benzo[d][1,3]dioxol-5-yl)-6-(pyridin-4-yl)imidazo[1,2-b]pyridazine]
42 | 7.00 to 9.30 | Cc1nc2ccc(-c3ccncc3)nc2n1-c1ccc2[nH]cnc2c1 [Compound 32, 3-(1H-benzo[d]imidazol-5-yl)-2-methyl-5-(pyridin-4-yl)-3H-imidazo[4,5-b]pyridine]
43 | 7.00 to 9.30 | CCOC(=O)c1ccc(-n2c(C)nc3ccc(-c4ccncc4)nc32)cc1 [Compound 40, ethyl 4-(2-methyl-5-(pyridin-4-yl)-3H-imidazo[4,5-b]pyridin-3-yl)benzoate]
44 | 7.00 to 9.30 | COc1ccc(-n2c(C)nc3ccc(-c4ccncc4)nc32)cc1 [Compound 43, 3-(4-methoxyphenyl)-2-methyl-5-(pyridin-4-yl)-3H-imidazo[4,5-b]pyridine]
